Results published in article PMC6309922, “(ADP-ribosyl)hydrolases: Structural Basis for Differential Substrate Recognition and Inhibition” (Cell Chemical Biology, 2018).
Like-named read-outs stand apart in the source and are kept apart here. Marks after values point to notes of the source that are not given here.

Key:
hARH1 [1] = biological target: T1, hARH1 (Homo sapiens, UniProt P54922); test: Removal of Arg-ADP-ribosylation from HeLa cell extracts (32P autoradiography); type: biochemical; conditions: arginine ADP-ribosylated whole cell lysate as substrate; 1-1,000 μM compound
T1 construct: made in house; host or cells: E. coli Rosetta (DE3)
Procedure: In vitro modification of proteins from HeLa cell extracts by mARTC2.2 recombinant protein was performed, with minor modifications, as described earlier ([Palazzo et al., 2016]). Briefly, cells were grown to confluence on two 10-cm dishes, washed thrice with 50 mM TrisHCl (pH 7.5) and 200 mM NaCl and lysed in 800 μL of 50 mM Tris-HCl pH 7.5, 150 mM NaCl, 0.5% Triton X-100, 0.2 mM DTT and 1 μM olaparib at 4°C supplemented with cOmplete™ EDTA-free protease inhibitor (Roche). The cell extract was clarified by centrifugation. 12 uL of extract per reaction were supplemented with 15 mM MgCl2, 1 μM mARTC2.2 and 1 μCi ^32P-NAD^+ and incubated for 15 min at 30°C. Lysates were further incubated in presence of hydrolases for 45 min at 30°C. Reactions were stopped by addition of LDS sample buffer (Life Technologies) and incubation at 95°C for 3 min. Samples were then analysed by SDS-PAGE and autoradiography. For inhibitor study the hARH1 was pre-incubated with indicated amount of inhibitor for 5 min at RT.

hARH1 [2] = biological target: T1, hARH1; test: Enzyme kinetics and inhibition assay with fluorogenic substrate TFMU-ADPr; type: biochemical; conditions: for IC50: 20 μM TFMU-ADPr as substrate, triplicate
Procedure: (§1) Reactions were performed as described in ([Drown et al., 2018]). Briefly, reactions were carried out in 384-well plates using 50 mM Na2HPO4 (pH 7.4), 10 mM MgCl2, 5 mM DTT and indicated amounts of TFMU-ADPr as substrate. After shaking for 5 s, fluorescence was recorded at 5 s intervals for 15 min on a Molecular Devices SpectraMax M3 microplate reader (reader settings: λEx 385 nm, λEm 502 nm, λcutoff 495 nm, 6 reads/well, low gain). Initial reaction rates were determined by fitting the linear portions of reaction progress curves. Initial rates were plotted against substrate concentration and fit to the Michaelis-Menton equation using a non-linear curve-fitting algorithm in GraphPad Prism 6.
(§2) For inhibitor studies enzymes and inhibitor were pre-incubated for 5 min at RT before addition of substrate. Percent inhibition was calculated with the no enzyme and no inhibitor reactions as positive and negative controls, respectively. Dose-response curves were fit using GraphPad Prism 6.

LchARH3 [3] = biological target: T2, LchARH3 (Latimeria chalumnae, UniProt H3BCW1); type: biochemical; conditions: for inhibitory potential against ARH3 (in words): serine MARylated histone H3 peptide as substrate, 1-1,000 μM compound; for support of hydrolysis of Ser-ADPr and PAR by metal (in words): MgII-stripped enzyme, 100 μM metal salt
T2 construct: LchARH3 (GenBank: XP_005988572; aa residues 10-362); made in house; host or cells: E. coli Rosetta (DE3)
T2 sequence (H3BCW1 10-356 limits assumed): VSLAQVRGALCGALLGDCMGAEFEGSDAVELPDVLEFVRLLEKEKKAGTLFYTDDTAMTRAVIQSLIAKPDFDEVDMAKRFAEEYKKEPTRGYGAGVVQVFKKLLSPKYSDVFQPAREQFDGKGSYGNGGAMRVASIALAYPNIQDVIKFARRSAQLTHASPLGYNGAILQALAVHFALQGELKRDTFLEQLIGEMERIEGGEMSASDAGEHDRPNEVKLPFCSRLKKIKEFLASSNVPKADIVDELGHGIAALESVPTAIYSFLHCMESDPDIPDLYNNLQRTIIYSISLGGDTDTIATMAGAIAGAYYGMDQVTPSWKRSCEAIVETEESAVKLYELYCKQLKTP
Procedure: (§3) ARH3 activity assays were performed essentially as described ([Fontana et al., 2017]). Briefly, H3 peptide (aa 1-20, biotinylated) was modified by incubation with 0.5 μM PARP1, 1 μM HPF1 and activated DNA (Trevigen) in assay buffer (50 mM TrisHCl [pH 8], 200 mM NaCl, 2 mM MgCl2, 1 mM DTT, 10 μM NAD^+ and 1 μCi ^32P-NAD^+). Reactions were incubated for 30 min at 30°C and stopped by addition of 1 μM olaparib. Reaction were further incubated in presence of 1 μM hydrolase for 1 h at 30°C. Reactions were stopped by addition of LDS sample buffer (Life Technologies) and incubation at 95°C for 3 min. Samples were then analysed by SDS-PAGE, immunoblot and autoradiography. For inhibitor study the ARH3 was pre-incubated with indicated amount of inhibitor for 5 min at RT.

hARH3 [4] = biological target: T3, hARH3 (Homo sapiens, UniProt Q9NX46); test: Enzyme kinetics and inhibition assay with fluorogenic substrate TFMU-ADPr; type: biochemical; conditions: triplicate; for IC50: 20 μM TFMU-ADPr as substrate
T3 construct: made in house; host or cells: E. coli Rosetta (DE3)
T3 sequence (Q9NX46 1-363): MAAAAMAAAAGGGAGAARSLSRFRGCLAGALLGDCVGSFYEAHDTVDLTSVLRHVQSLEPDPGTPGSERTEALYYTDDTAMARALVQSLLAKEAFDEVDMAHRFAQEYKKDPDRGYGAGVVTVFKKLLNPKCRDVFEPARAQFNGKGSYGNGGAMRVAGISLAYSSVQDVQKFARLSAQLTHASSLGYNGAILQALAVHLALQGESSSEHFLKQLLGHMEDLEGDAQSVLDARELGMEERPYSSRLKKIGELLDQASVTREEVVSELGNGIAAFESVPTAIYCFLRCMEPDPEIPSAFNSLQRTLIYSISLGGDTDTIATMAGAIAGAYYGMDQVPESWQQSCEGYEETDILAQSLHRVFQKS
Procedure: as §1, §2

hARH3 [5] = biological target: T3, hARH3; test: De-modification of Ser-ADP-ribosyl H3 peptide and degradation of PAR (32P autoradiography); type: biochemical; conditions: for support of hydrolysis of Ser-ADPr and PAR by metal (in words): MgII-stripped enzyme, 100 μM metal salt
Procedure: as §3

hARH3 [6] = biological target: T3, hARH3; design: method as in Drown et al., 2018; conditions: in situ generation of Arg-ADPr; ref Drown et al., 2018; cited from earlier work
LchARH3 [7] = biological target: T2, LchARH3; test: biochemical; type: binding; conditions: for TM / ΔTM: 100 μM metal salt; for TM: n = 6; for ΔTM: ΔTM = TM (salt) - TM (apo)
Procedure: LchARH3 WT was purified as described above and dialysed against 50 mM TrisHCl (pH 8), 200 mM NaCl, 20 mM EDTA, 1 mM DTT and 5% (v/v) glycerol. EDTA was removed by dialysing twice against 50 mM TrisHCl (pH 8), 200 mM NaCl, 1 mM DTT and 5% (v/v) glycerol. Each dialysis step was carried out with a minimum 1:1,000 ratio of sample to buffer. Only samples with purity >90% (as assessed by SDS-PAGE) were used for subsequent DSF experiments.
Assays were performed essentially as described earlier ([Vivoli et al., 2014]). Briefly, 10 μM LchARH3 wt EDTA-treated, 10x SYPRO® Orange (ThermoFisher Scientific) and indicated amounts of metal salts in assay buffer (50 mM TrisHCl [pH 8], 200 mM NaCl and 1 mM DTT) were thermal denaturated in MicroAmp® Fast plates (Life Technologies) in a StepOne qPCR instrument (ThermoFisher Scientific). The initial temperature of 24°C was held for 2.5 min, followed by a ramp to 97.5°C at 0.5°C/45 sec and then 2 min pause at 98°C. Curves were fit using GraphPad Prism 6. For analysis recorded data were cropped two data points after recorded fluorescence signal maximum and the resulting curves fitted using the Boltzman equation F=BOTTOM+(TOP−BOTTOM)/1+e^(TM−T/SLOPE)
with TM, melting temperature; T, temperature; SLOPE, steepness of curve. For the inference of the binding constant the determined TM’s were plotted and analysed using a single binding site model: TM=BOTTOM+((TOP−BOTTOM)∗(1−(P−Kd−M+(P+M+Kd)^2∗(4∗P∗M)/2P))) with P, protein concentration; M, metal salt concentration; Kd dissociation constant.

hARH3 [8] = biological target: T3, hARH3; test: Differential scanning fluorimetry (DSF) with metal salts, MgII-depleted enzyme; type: binding; conditions: for TM / ΔTM: 100 μM metal salt; for TM: n = 3; for ΔTM: ΔTM = TM (salt) - TM (apo)
[9] = DSF, 16 metal salt dilutions, single-site ligand-binding model, triplicate ± SD, read-out: Kd
[10] = DSF, rounded, read-out: Kd of magnesium on its own

T1 sequence (P54922 whole entry): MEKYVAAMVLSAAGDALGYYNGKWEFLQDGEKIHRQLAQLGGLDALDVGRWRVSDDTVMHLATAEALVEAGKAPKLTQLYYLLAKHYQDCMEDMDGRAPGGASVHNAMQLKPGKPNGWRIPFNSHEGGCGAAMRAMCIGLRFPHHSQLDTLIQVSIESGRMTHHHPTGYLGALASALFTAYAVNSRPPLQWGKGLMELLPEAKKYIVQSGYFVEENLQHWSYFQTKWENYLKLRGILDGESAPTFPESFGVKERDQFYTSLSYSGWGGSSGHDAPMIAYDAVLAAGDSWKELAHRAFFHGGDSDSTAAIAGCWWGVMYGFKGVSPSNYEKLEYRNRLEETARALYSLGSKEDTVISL

Structure (SMILES) | TM (LchARH3 [7]) [°C] | ΔTM (LchARH3 [7]) | TM (hARH3 [8]) [°C] | ΔTM (hARH3 [8]) | also measured
Nc1ncnc2c1ncn2[C@@H]1O[C@H](CO[P@](=O)(O)O[P@@](=O)(O)OC[C@H]2NC[C@H](O)[C@@H]2O)[C@@H](O)[C@H]1O [ADP-HPD, adenosine diphosphate (hydroxymethyl)pyrrolidinediol] | – | – | – | – | inhibitory potential against hARH1 (in words) (hARH1 [1]): only mild activity; inhibition of hARH1 (in words) (hARH1 [2]; IC50 conditions, 20 μM TFMU-ADPr): no inhibition; inhibitory potential against ARH3 (in words) (LchARH3 [3]): inhibited
Nc1ncnc2c1ncn2C1OC(COP(=O)(O)OP(=O)(O)OCC2CC(O)CN2)C(O)C1O (centres unmarked) [ADP-HPM] | – | – | – | – | inhibitory potential against hARH1 (in words) (hARH1 [1]): only minor inhibitor potential; IC50 (hARH1 [2]): 164 µM; inhibitory potential against ARH3 (in words) (LchARH3 [3]): only minor inhibitor potential
Nc1ncnc2c1ncn2C1OC(COP(=O)(O)OP(=O)(O)OCC2OC(O)C(O)C2O)C(O)C1O (centres unmarked) [ADPr, ADP-ribose] | – | – | – | – | inhibitory potential against hARH1 (in words) (hARH1 [1]): only mild activity; IC50 (hARH3 [4]): 3.2 µM; Ki (hARH3 [4]; TFMU-ADPr substrate): 1080 ± 80 nM; IC50 (hARH1 [2]): 228 µM; inhibitory potential against ARH3 (in words) (LchARH3 [3]): inhibited; inhibitory potential against ARH3 (in words) (hARH3 [5]; serine MARylated histone H3 peptide as substrate, 1-1,000 μM compound): inhibited
NC(=NCCC[C@H](N)C(=O)O)N[C@H]1O[C@H](COP(=O)(O)OP(=O)(O)OC[C@H]2O[C@@H](n3cnc4c(N)ncnc43)[C@H](O)[C@@H]2O)[C@@H](O)[C@H]1O [Arg-ADPr, arginine-ADP-ribose] | – | – | – | – | inhibition of hARH3 (in words) (hARH3 [6]): potent, cellular inhibitor of hARH3
[Ca+2] [CaCl2, Calcium chloride dehydrate] | 44.4 ± 0.08 | 4.2 ^d °C | 50.1 ± 0.08 | 3.4 ^d °C | IC50 (hARH3 [4]): 13.7 µM; inhibition of ARH3 by calcium (in words) (LchARH3 [3]; de-MARylation assay in presence of 1 mM MgCl2 or 1 mM MnCl2, 1-2,000 μM CaCl2): inhibitor of magnesium-, but not manganese-, supplemented ARH3; Kd (LchARH3 [7]; [9]): 0.431 ± 0.068 mM; Kd (hARH3 [8]; [9]): 0.266 ± 0.042 mM
O.O.O.O.O.O.[Cl-].[Cl-].[Co+2] [CoCl2, Cobalt(II) chloride hexahydrate] | 39.6 ± 0.28 | −0.6 °C | 46.7 ± 0.09 | 0.0 °C | –
O.O.O.O.O.O.[Cl][Cr]([Cl])[Cl] [CrCl3, Chromium(III) chloride hexahydrate] | 40.1 ± 0.21 | −0.1 °C | 46.5 ± 0.04 | −0.3 °C | –
[Cl][Cu][Cl] [CuCl2, Copper(II) chloride] | 39.0 ± 0.21 | −1.2 ^d °C | 40.5 ± 0.10 | −6.2 ^d °C | –
[Cl-].[Li+] [LiCl, Lithium chloride] | 40.1 ± 0.16 | −0.1 °C | 46.6 ± 0.15 | −0.1 °C | –
[Mg+2] [MgCl2, Magnesium chloride hexahydrate] | 41.4 ± 0.17 | 1.3 ^d °C | 46.7 ± 0.11 | 0.0 °C | apparent concentration needed to restore activity (LchARH3 [3]; EDTA-treated LchARH3, 1-1000 µM MgCl2): ~50 µM; support of hydrolysis of Ser-ADPr and PAR by metal (in words) (LchARH3 [3]): able to support hydrolysis of Ser-ADPr and PAR; support of hydrolysis of Ser-ADPr and PAR by metal (in words) (hARH3 [5]): able to support hydrolysis of Ser-ADPr and PAR; Kd (LchARH3 [7]; [9]): 2.3 ± 0.257 mM; Kd (LchARH3 [7]; [10]): ~2.3 mM; Kd (hARH3 [8]; [9]): 5.41 ± 0.322 mM; Kd (hARH3 [8]; [10]): ~5.4 mM
[Mn+2] [MnCl2, Manganese(II) chloride tetrahydrate] | 51.5 ± 0.23 | – | 52.6 ± 0.09 | – | support of hydrolysis of Ser-ADPr and PAR by metal (in words) (LchARH3 [3]): able to support hydrolysis of Ser-ADPr and PAR; support of hydrolysis of Ser-ADPr and PAR by metal (in words) (hARH3 [5]): able to support hydrolysis of Ser-ADPr and PAR; Kd (LchARH3 [7]): 0.175 ± 0.024 mM; Kd (hARH3 [8]): 0.208 ± 0.012 mM
O.O.O.O.O.O.[Cl][Ni][Cl] [NiCl2, Nickel(II) chloride hexahydrate] | 40.7 ± 0.22 | 0.5 °C | 46.4 ± 0.09 | −0.3 °C | –
[Cl-].[Cl-].[Zn+2] [ZnCl2, Zinc chloride] | 37.4 ± 0.25 | −2.8 ^d °C | 44.1 ± 0.07 | −2.6 ^d °C | –
